Three molecules from patent publication US20130210099A1, “METHOD FOR THE PRODUCTION OF ERYTHRITOL” (ANNIKKI GMBH, priority 2010, published 2013) can be followed below.

Data set [1] addresses T1, GST::err1 fusion proteins (Trichoderma reesei, UniProt Q0GYU5).
T1 construct: made in house; host or cells: E. coli BL21 (DE3) pLysS
Description: Enzyme assay measuring NADPH-decrease with different substrates. The note with it: NADPH decrease at 340 nm; 400 μM NADPH, 10 mM substrate, 30° C., pH 7. Type of data set: biochemical. How it is done: The following 1 mL assay was performed: 400 μM NADPH (in 10 mM sodium phosphate buffer, pH 7), and 25 μL purified GST::err1 enzyme were mixed in an lmL quartz cuvette and incubated at 30° C. for 1 min. Then adding D-erythrose to a final concentration of 10 mM started the reaction. The decrease of NADPH concentration was measured in a spectrophotometer at 340 nm. As a control, a blank was performed using water instead of D-erythrose.

Data set [2] has as its target T2, Err1 (Trichoderma reesei, UniProt Q0GYU5).
T2 sequence (Q0GYU5 1-331): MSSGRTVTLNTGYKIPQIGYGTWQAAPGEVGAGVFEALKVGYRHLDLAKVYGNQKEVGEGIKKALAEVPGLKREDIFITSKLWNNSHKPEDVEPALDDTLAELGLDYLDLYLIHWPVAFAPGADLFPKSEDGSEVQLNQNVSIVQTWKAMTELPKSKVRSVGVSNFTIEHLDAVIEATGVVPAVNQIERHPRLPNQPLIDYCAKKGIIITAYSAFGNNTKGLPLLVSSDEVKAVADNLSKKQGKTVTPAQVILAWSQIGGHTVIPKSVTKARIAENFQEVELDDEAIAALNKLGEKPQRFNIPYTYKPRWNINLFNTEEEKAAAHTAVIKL
Description: Determination of Vmax and Km according to Liepins et al. (2006).

The target of data set [3] is T1, GST::err1 fusion proteins. Briefly: HPLC analysis of the enzymatic conversion of erythrose. The note with it: 4 mM NADPH, 5 mM erythrose, 25° C. or 37° C., 2 h. Type of data set: biochemical. How it is done:
The following 1 mL assays have been performed prior to HPLC analysis: Assay 1 comprised 4 mM NADPH (in 10 mM sodium phosphate buffer, pH 7), 25 μL purified GST::err1 enzyme, 5 mM erythrose and was incubated at 25° C. for 2 hours. Assay 2 was performed according to assay 1, but was incubated at 37° C. for 2 h. Both assays were stopped by incubating at 85° C. for 10 min and afterwards were filtered using 0.2 μm filters. As negative control assay 3 was performed like assay 1, but was immediately stopped by incubation at 85° C. for 10 min and assay 4 was performed according to assay 1, but sodium phosphate buffer instead of erythrose was used and it was immediately stopped at 85° C. for 10 min.
Analyses were performed using a Thermo Finnigan Surveyor HPLC instrument (Thermo Fisher Scientific, MA, US). All 10 μL samples were injected onto a Rezex RHM-Monosaccharide column (H+, 8%, 150×7.8 mm; Phenomenex, CA, US). Water was used as the mobile phase and elution was followed at 85° C., applying a flow rate of 0.3 mL/min for 20 min. 1 mM D-Erythrose (Sigma) and erythritol (Sigma) were used as reference substances.

Substrate in data set [4]: O=CC=O
Briefly: purified protein, by the assay type. The note with it: other: substrate of Err1.

Substrate in data set [5]: O=C[C@H](O)CO
Description: purified protein, by the assay type. The note with it: other: substrate of Err1.

`O=CC=O` [Glyoxal, glyoxal, reference compound]: the Absorbance decrease in data set [1] is listed as −83.28 mAbs/min.
As to `O=C[C@H](O)[C@H](O)CO` [Erythrose, D-erythrose], the “activity compared with the other substrates” value in data set [2] (higher activity versus substrates with good activity for GLD1) is on record as “approximately 10 fold”. Further, in data set [2] (substrate of Err1), the Km was 16 µM and the Vmax stood at 530 nkat/mg. The molecule further yielded an Absorbance decrease in data set [1] of −83.77 mAbs/min. Moreover, in data set [3], the “enzymatic conversion of erythrose (HPLC)” value was “reduced to erythritol”.

B1: Err1 (Trichoderma reesei) (protein)
chain: MSSGRTVTLNTGYKIPQIGYGTWQAAPGEVGAGVFEALKVGYRHLDLAKVYGNQKEVGEGIKKALAEVPGLKREDIFITSKLWNNSHKPEDVEPALDDTLAELGLDYLDLYLIHWPVAFAPGADLFPKSEDGSEVQLNQNVSIVQTWKAMTELPKSKVRSVGVSNFTIEHLDAVIEATGVVPAVNQIERHPRLPNQPLIDYCAKKGIIITAYSAFGNNTKGLPLLVSSDEVKAVADNLSKKQGKTVTPAQVILAWSQIGGHTVIPKSVTKARIAENFQEVELDDEAIAALNKLGEKPQRFNIPYTYKPRWNINLFNTEEEKAAAHTAVIKL
Take B1: in data set [4], the Km worked out at 2400 µM and the Vmax was 22.5 µmol/min/mg. In data set [5], the Km amounted to 900 µM and the Vmax was found to be 9 µmol/min/mg.
